Test results as given in US20200138825A1, “METHOD OF TREATING MALIGNANT RHABDOID TUMOR OF THE OVARY (MRTO)/SMALL CELL CANCER OF THE OVARY OF THE HYPERCALCEMIC TYPE(SCCOHT) WITH AN EZH2 INHIBITOR” (Epizyme, Inc., priority 2015, published 2020).

Key:
Type in all cases: cell-based
[1] = test system: SMARCA4-negative ovarian cell lines; test: Long term 2D proliferation assay, SMARCA4-negative ovarian cell lines; details: day 14, SMARCA4-negative cell lines
Method: (§1) FIG. 13B is a pair of graphs depicting the results of a long term 2D proliferation assay for Compound D in SMARCA4 and ARID1A ovarian cell lines. The day 14 IC50 values are shown.
(§2) A panel of ovarian cancer cell lines of different histologies was subjected to proliferation assays in 2-D tissue culture for 14 days in the presence of increasing concentrations of an EZH2 inhibitor. Selected cell lines were also tested in 3-D cultures. […] In contrast, mutations in ARID1A, another SWI/SNF component, were not observed to broadly confer sensitivity to EZH2 inhibition in ovarian cancer cell lines in either 2-D or 3-D in vitro assays.

[2] = test system: ARID1A mutated ovarian cell lines; test: Long term 2D proliferation assay, ARID1A mutated ovarian cell lines; details: day 14, ARID1A mutated ovarian cell lines
Method: as §1, §2

SCCOHT cell line Bin-67 = test: 14 day proliferation study in Bin-67; details: 336 h; Bin-67, 14 day proliferation, 0.01-10 μM
Method: FIG. 13C is a graph displaying the results of a 14 day proliferation study with Compound D in the SMARCA4- and SMARCA2-negative small cell carcinoma of the ovary, hypercalcemic type (SCCOHT) cell line Bin-67. Growth curves are shown for 8 different treatment conditions ranging from 0.01-10 μM.
as §2

H3K27me3 in Bin-67 cells = test: Western Blot of H3K27me3 levels in Bin-67 cells; details: day 14, all concentrations
[3] = test system: ARID1A-mutated ovarian cell lines; test: 3D growth assay (Scivax Nanoculture), ARID1A-mutated ovarian cell lines; details: after 14 days
Method: 3D assays were performed using the Scivax Nanoculture technology whereby the micro-patterned scaffold mimics the ECM.
as §2

SCCOHT cell lines = test: 14-day proliferation assays, SCCOHT cell lines; details: 336 h, three SCCOHT cell lines
Method: as §2

A427 = test: EZH2 inhibition sensitivity, A427; details: Homo sapiens, A-427, SMARCA2 mRNA/protein loss, SMARCA4 Mutations, KRAS Mutations, read-out: Compound D IC50
Text: (§3) Sensitivity to EZH2 inhibition was examined in various cancer cell lines with similar mutations or loss of SWI/SNF components. Table 7 summarizes the EZH2 activity in additional SWI/SNF altered cancers, including lung adenocarcinoma.

NCl-H23 = test: EZH2 inhibition sensitivity, NCl-H23; details: SMARCA2 mRNA/protein loss, SMARCA4 Mutations, KRAS Mutations, read-out: Compound D IC50
Text: as §3

NCl-H522 = test: EZH2 inhibition sensitivity, NCl-H522; details: SMARCA2 mRNA/protein loss, SMARCA4 Mutations, KRAS No mutations or info not available, read-out: Compound D IC50
Text: as §3

A549 = test: EZH2 inhibition sensitivity, A549 (Proquinase 3D); details: Homo sapiens, Proquinase 3D IC50, SMARCA4 Mutations, KRAS Mutations, read-out: Compound D IC50
Text: as §3

NCl-H1299 = test: EZH2 inhibition sensitivity, NCl-H1299; details: SMARCA4 Mutations, read-out: Compound D IC50
Text: as §3

NClH838 = test: EZH2 inhibition sensitivity, NClH838; details: SMARCA4 Mutations, read-out: Compound D IC50
Text: as §3

NClH1793 = test: EZH2 inhibition sensitivity, NClH1793; details: SMARCA4 Mutations, read-out: Compound D IC50
Text: as §3

Calu-6 = test: EZH2 inhibition sensitivity, Calu-6; details: Homo sapiens, KRAS Mutations, read-out: Compound D IC50
Text: as §3

NCl-H441 = test: EZH2 inhibition sensitivity, NCl-H441 (Proquinase 3D); details: Proquinase 3D IC50, KRAS Mutations, read-out: Compound D IC50
Text: as §3

H460 = test: EZH2 inhibition sensitivity, H460 (Proquinase 3D); details: Homo sapiens, NCI-H460, Proquinase 3D IC50, KRAS Mutations, read-out: Compound D IC50
Text: as §3

NClH2122 = test: EZH2 inhibition sensitivity, NClH2122; details: KRAS Mutations, read-out: Compound D IC50
Text: as §3

NClH1734 = test: EZH2 inhibition sensitivity, NClH1734; details: KRAS Mutations, read-out: Compound D IC50
Text: as §3

NClH1373 = test: EZH2 inhibition sensitivity, NClH1373; details: KRAS Mutations, read-out: Compound D IC50
Text: as §3

NClH1993 = test: EZH2 inhibition sensitivity, NClH1993; details: no mutations or info not available in SMARCA2, SMARCA4, KRAS, read-out: Compound D IC50
Text: as §3

NClH2110 = test: EZH2 inhibition sensitivity, NClH2110; details: no mutations or info not available in SMARCA2, SMARCA4, KRAS, read-out: Compound D IC50
Text: as §3

Calu-3 = test: EZH2 inhibition sensitivity, Calu-3; details: Homo sapiens, no mutations or info not available in SMARCA2, SMARCA4, KRAS, read-out: Compound D IC50
Text: as §3

NClH1563 = test: EZH2 inhibition sensitivity, NClH1563; details: no mutations or info not available in SMARCA2, SMARCA4, KRAS, read-out: Compound D IC50
Text: as §3

HCC827 = test: EZH2 inhibition sensitivity, HCC827 (Proquinase 3D); details: Homo sapiens, Proquinase 3D IC50, no mutations or info not available in SMARCA2, SMARCA4, KRAS, read-out: Compound D IC50
Text: as §3

IC50 (A427): 2.3 µM
IC50 (NCl-H23): 10 µM
IC50 (NCl-H522): 1.14 µM
IC50 (A549): 10 µM
IC50 (NCl-H1299): 10 µM
IC50 (NClH838): 10 µM
IC50 (NClH1793): 10 µM
IC50 (Calu-6): 0.001 µM
IC50 (NCl-H441): 10 µM
IC50 (H460): 10 µM
IC50 (NClH2122): 10 µM
IC50 (NClH1734): 10 µM
IC50 (NClH1373): 10 µM
IC50 (NClH1993): 10 µM
IC50 (NClH2110): 10 µM
IC50 (Calu-3): 10 µM
IC50 (NClH1563): 10 µM
IC50 (HCC827): 10 µM
Compound: CCN(c1cc(-c2ccc(CN3CCOCC3)cc2)cc(C(=O)NCc2c(C)cc(C)[nH]c2=O)c1C)[C@H]1CC[C@H](N(C)C)CC1 [Compound D]
anti-proliferative effects [1]: anti-proliferative effects
anti-proliferative effects [2]: do not
IC50 (SCCOHT cell line Bin-67): 0.01 µM
H3K27me3 levels (H3K27me3 in Bin-67 cells): completely reduced
3D growth effects [3]: No effects were observed
IC50 (SCCOHT cell lines): 0.005 to 0.017 µM
